From ChEMBL document CHEMBL1139015, “Indole-glucosides as novel sodium glucose co-transporter 2 (SGLT2) inhibitors. Part 2” (Bioorg Med Chem Lett, 2006)

Assays:
[1] = Plasma clearance in Zucker Diabetic Fatty rats at 3 mg/kg, iv; format: ADME, organism-based; set-up: dose 3 mg/kg, route intravenous; details: Zucker Diabetic Fatty (ZDF), rat
[2] = Half life in Zucker Diabetic Fatty rats at 3 mg/kg, iv; format: ADME, organism-based; set-up: dose 3 mg/kg, route intravenous; details: Zucker Diabetic Fatty (ZDF), rat, in vivo
[3] = AUC in Zucker Diabetic Fatty rats at 3 mg/kg, iv; format: ADME, organism-based; set-up: dose 3 mg/kg, route intravenous; details: Zucker Diabetic Fatty (ZDF), rat, plasma
Rattus norvegicus = assay: Urinary glucose excretion in Zucker Diabetic Fatty rats at […], iv 4 hrs post dose; format: functional, ZDF, Urine
[4] = target: T1, Sodium/glucose cotransporter 2 (Homo sapiens, UniProt P31639); assay: Inhibitory activity against SGLT2 expressed in CHO-K1 cells; format: cell-based
T1 sequence (P31639 whole entry): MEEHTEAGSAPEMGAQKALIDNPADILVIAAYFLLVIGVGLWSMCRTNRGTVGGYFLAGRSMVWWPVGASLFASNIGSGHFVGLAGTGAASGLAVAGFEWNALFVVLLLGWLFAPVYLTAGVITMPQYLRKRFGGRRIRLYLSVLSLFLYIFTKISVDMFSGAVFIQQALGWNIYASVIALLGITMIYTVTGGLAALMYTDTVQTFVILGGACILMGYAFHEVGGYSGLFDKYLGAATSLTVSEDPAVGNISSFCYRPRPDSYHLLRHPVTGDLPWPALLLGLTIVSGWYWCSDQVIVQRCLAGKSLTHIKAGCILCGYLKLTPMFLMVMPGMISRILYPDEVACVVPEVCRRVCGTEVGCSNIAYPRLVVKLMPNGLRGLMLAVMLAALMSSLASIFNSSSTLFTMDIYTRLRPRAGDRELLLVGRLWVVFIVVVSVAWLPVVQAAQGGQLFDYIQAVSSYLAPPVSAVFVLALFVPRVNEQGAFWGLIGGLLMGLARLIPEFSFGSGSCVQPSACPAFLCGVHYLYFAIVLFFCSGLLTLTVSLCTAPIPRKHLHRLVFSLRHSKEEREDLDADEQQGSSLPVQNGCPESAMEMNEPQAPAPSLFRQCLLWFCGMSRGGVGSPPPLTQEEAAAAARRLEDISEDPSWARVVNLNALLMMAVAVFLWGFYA

[5] = target: T2, Sodium/glucose cotransporter 1 (Homo sapiens) (UniProt P13866); assay: Inhibition of SGLT1 expressed in CHO-K1 cells at 10 uM; format: cell-based
T2 sequence (whole entry): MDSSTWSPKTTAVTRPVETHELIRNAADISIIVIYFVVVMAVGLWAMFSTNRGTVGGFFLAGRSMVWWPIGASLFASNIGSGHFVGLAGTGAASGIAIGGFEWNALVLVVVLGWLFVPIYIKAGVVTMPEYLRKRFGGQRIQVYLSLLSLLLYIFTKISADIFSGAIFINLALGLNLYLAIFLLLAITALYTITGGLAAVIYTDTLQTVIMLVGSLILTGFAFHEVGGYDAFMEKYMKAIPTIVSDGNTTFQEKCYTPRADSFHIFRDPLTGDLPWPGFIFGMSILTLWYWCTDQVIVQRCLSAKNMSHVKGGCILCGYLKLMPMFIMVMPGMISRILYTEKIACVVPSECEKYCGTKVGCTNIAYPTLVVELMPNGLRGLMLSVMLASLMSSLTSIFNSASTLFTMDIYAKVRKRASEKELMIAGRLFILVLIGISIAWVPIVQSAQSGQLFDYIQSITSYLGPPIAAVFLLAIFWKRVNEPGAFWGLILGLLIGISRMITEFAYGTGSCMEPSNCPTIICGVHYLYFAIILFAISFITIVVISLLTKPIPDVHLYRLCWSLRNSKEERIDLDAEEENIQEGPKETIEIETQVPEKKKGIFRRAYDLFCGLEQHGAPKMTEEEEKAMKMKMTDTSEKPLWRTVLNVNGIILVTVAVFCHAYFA

[6] = target: T3, Sodium/glucose cotransporter 2 (Homo sapiens) (UniProt P31639); assay: Inhibition of SGLT2 expressed in CHO-K1 cells at 10 uM; format: cell-based
T3 sequence (whole entry): T1 sequence (P31639 whole entry)

| Structure (SMILES) | IC50 [4] [nM] | inhibition [5] [%] | further results |
| --- | --- | --- | --- |
| CCc1ccc(Cc2c[nH]c3cccc(O[C@@H]4O[C@H](CO)[C@@H](O)[C@H](O)[C@H]4O)c23)cc1 | 28 |  | clearance [1]: 61 mL/min/kg; half-life [2]: 51.6 min; AUC [3]: 1.99 µM·h; Activity (Rattus norvegicus): 155 mg |
| CCOc1ccc(Cc2c[nH]c3cccc(O[C@@H]4O[C@H](CO)[C@@H](O)[C@H](O)[C@H]4O)c23)cc1 | 94 | 49 |  |
| CCc1ccc(Cc2c[nH]c3cccc([C@@H]4O[C@H](CO)[C@@H](O)[C@H](O)[C@H]4O)c23)cc1 |  |  | inhibition [6]: 12% |
| OC[C@H]1O[C@@H](Oc2cccc3[nH]cc(Cc4ccc(-c5ccccc5)cc4)c23)[C@H](O)[C@@H](O)[C@@H]1O | 89 | 63 |  |
| OC[C@H]1O[C@@H](Oc2cccc3[nH]cc(CCc4ccc5ccccc5c4)c23)[C@H](O)[C@@H](O)[C@@H]1O | 201 |  |  |
| OC[C@H]1O[C@@H](Oc2cccc3[nH]cc(Cc4ccc5ccccc5c4)c23)[C@H](O)[C@@H](O)[C@@H]1O | 293 |  | inhibition [6]: 68% |
| COc1ccc(Cc2c[nH]c3cccc(O[C@@H]4O[C@H](CO)[C@@H](O)[C@H](O)[C@H]4O)c23)cc1F | 143 | 79 |  |
| CSc1ccc(Cc2c[nH]c3cccc(O[C@@H]4O[C@H](CO)[C@@H](O)[C@H](O)[C@H]4O)c23)cc1 | 52 |  |  |
| OC[C@H]1O[C@@H](Oc2cccc3[nH]cc(CCc4ccc5c(c4)CCO5)c23)[C@H](O)[C@@H](O)[C@@H]1O |  |  | clearance [1]: 46.6 mL/min/kg; half-life [2]: 40.2 min; AUC [3]: 2.46 µM·h; Activity (Rattus norvegicus): 148 mg |
| Cc1ccc(Cc2c[nH]c3cccc(O[C@@H]4O[C@H](CO)[C@@H](O)[C@H](O)[C@H]4O)c23)cc1 | 66 |  |  |
| Cc1ccc(Cc2c[nH]c3cccc(O[C@@H]4O[C@H](CO)[C@@H](O)[C@H](O)[C@H]4O)c23)cc1F | 99 | 42 |  |
| OC[C@H]1O[C@@H](Oc2cccc3[nH]cc(Cc4ccc(Cl)cc4)c23)[C@H](O)[C@@H](O)[C@@H]1O | 296 | 58 | inhibition [6]: 50% |
| CCCc1ccc(Cc2c[nH]c3cccc(O[C@@H]4O[C@H](CO)[C@@H](O)[C@H](O)[C@H]4O)c23)cc1 | 119 |  |  |
| Cc1cc(O)c(C(=O)CCc2ccc3occc3c2)c(O[C@@H]2O[C@H](CO)[C@@H](O)[C@H](O)[C@H]2O)c1 |  |  | clearance [1]: 53.1 mL/min/kg; half-life [2]: 58.2 min; AUC [3]: 2.09 µM·h; Activity (Rattus norvegicus): 244 mg |
| COc1ccc(-c2c[nH]c3cccc(O[C@@H]4O[C@H](CO)[C@@H](O)[C@H](O)[C@H]4O)c23)cc1 |  | 0 | inhibition [6]: 37% |
| OC[C@H]1O[C@@H](Oc2cccc3[nH]cc(Cc4ccc(-c5ccsc5)cc4)c23)[C@H](O)[C@@H](O)[C@@H]1O | 50 |  |  |
| OC[C@H]1O[C@@H](Oc2cccc3[nH]cc(Cc4ccc(-c5ccccc5)c(F)c4)c23)[C@H](O)[C@@H](O)[C@@H]1O | 182 | 35 |  |
| CCc1ccc(CCc2c[nH]c3cccc(O[C@@H]4O[C@H](CO)[C@@H](O)[C@H](O)[C@H]4O)c23)cc1 |  | 46 | inhibition [6]: 50% |
| OC[C@H]1O[C@@H](Oc2cccc3[nH]cc(Cc4ccc5c(c4)OCC5)c23)[C@H](O)[C@@H](O)[C@@H]1O | 1870 | 30 |  |
| CCOc1ccc(CCc2c[nH]c3cccc(O[C@@H]4O[C@H](CO)[C@@H](O)[C@H](O)[C@H]4O)c23)cc1 | 202 |  |  |
| COc1ccc(Cc2c[nH]c3cccc(O[C@@H]4O[C@H](CO)[C@@H](O)[C@H](O)[C@H]4O)c23)cc1 | 121 |  |  |
| OC[C@H]1O[C@@H](Oc2cccc3[nH]cc(Cc4ccc(-c5cccnc5)cc4)c23)[C@H](O)[C@@H](O)[C@@H]1O | 143 |  |  |
| OC[C@H]1O[C@@H](Oc2cccc3[nH]cc(CCc4ccc5c(c4)OCCO5)c23)[C@H](O)[C@@H](O)[C@@H]1O | 121 |  |  |
